Laboratory results: ChEMBL document CHEMBL1201862, “PubChem BioAssay data set” (2004)
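Results reflect a 48-hour exposure of cells in 96-well plates to compound at five concentrations. The concentration for 50% growth inhibition is given as GI50.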 Calls of active or inactive are those of the source. No stated cut-off is given here; in the data, active = GI50 up to about 1.1 µM and inactive = higher.

Experiments:
Test in all cases: NCI tumour cell line growth inhibition, 48 h
SN12C = system: SN12C
SK-MEL-2 = system: SK-MEL-2
786-0 = system: 786-0
MDA-MB-435 = system: MDA-MB-435
ACHN = system: ACHN
SK-MEL-5 = system: SK-MEL-5
MDA-MB-231 = system: MDA-MB-231
KM12 = system: KM12
MOLT-4 = system: MOLT-4
UACC-257 = system: UACC-257
CAKI-1 = system: CAKI-1
SK-OV-3 = system: SK-OV-3
OVCAR-3 = system: OVCAR-3
M14 = system: M14
MCF7 = system: MCF7
CCRF-CEM = system: CCRF-CEM
NCI-H226 = system: NCI-H226
HCT-116 = system: HCT-116
SF-295 = system: SF-295
SR = system: SR

Measured: GI50

CC1OC(OC2C(OC(=O)[C@@H]3CC(C)(C)C[C@@H]4C5=CC[C@@H]6[C@@]7(C)C[C@H](O)[C@H](OC8OC(CO)C(O)C(O)C8O)[C@@](C)(CO)C7[C@H](O)C[C@@]6(C)[C@]5(C)C[C@@H](O)[C@H]43)OCC(O)C2O)C(O)C(O)C1O (some centres undefined)
inactive: SN12C 5.57 µM | SK-MEL-2 > 15 µM | 786-0 > 15 µM | MDA-MB-435 > 15 µM | ACHN > 15 µM | SK-MEL-5 > 15 µM | MDA-MB-231 > 15 µM | KM12 > 15 µM | MOLT-4 > 15 µM | UACC-257 > 15 µM | CAKI-1 > 15 µM | SK-OV-3 > 15 µM | OVCAR-3 > 15 µM | M14 > 15 µM | MCF7 > 15 µM | CCRF-CEM > 15 µM | NCI-H226 > 15 µM | HCT-116 7.57 µM | SF-295 > 15 µM

CC1CCC2C(C(=O)O[C@H]3C4C=CO[C@@H](OC5OC(CO)C(O)C(O)C5O)C4[C@@]4(CO)O[C@@H]34)=CO[C@@H](OC3OC(CO)C(O)C(O)C3O)C12 (some centres undefined)
inactive: SN12C > 10 µM | SK-MEL-2 > 10 µM | 786-0 > 10 µM | MDA-MB-435 > 10 µM | ACHN > 10 µM | SK-MEL-5 > 10 µM | MDA-MB-231 > 10 µM | KM12 > 10 µM | MOLT-4 > 10 µM | UACC-257 > 10 µM | CAKI-1 > 10 µM | SK-OV-3 > 10 µM | OVCAR-3 > 10 µM | M14 > 10 µM | MCF7 > 10 µM | CCRF-CEM > 10 µM | NCI-H226 > 10 µM | HCT-116 > 10 µM | SF-295 > 10 µM

O=[N+]([O-])c1cc(Cl)ccc1S(=O)(=O)N1CCCc2cc(Cl)ccc21
inactive: SN12C > 100 µM | SK-MEL-2 > 100 µM | 786-0 > 100 µM | MDA-MB-435 17.8 µM | ACHN > 100 µM | SK-MEL-5 30.8 µM | MDA-MB-231 > 100 µM | KM12 51.9 µM | MOLT-4 6.11 µM | UACC-257 7.08 µM | CAKI-1 45.2 µM | SK-OV-3 59.6 µM | OVCAR-3 > 100 µM | M14 > 100 µM | MCF7 45.8 µM | CCRF-CEM 6.17 µM | NCI-H226 82.4 µM | HCT-116 28.6 µM | SF-295 45.7 µM

COc1c(O)cc2c(c1O)C(=O)C(Cc1ccc(O)cc1)CO2 (centres undefined)
inactive: SN12C > 100 µM | SR 24.9 µM | SK-MEL-2 > 100 µM | 786-0 > 100 µM | MDA-MB-435 28 µM | ACHN > 100 µM | SK-MEL-5 84.9 µM | MDA-MB-231 > 100 µM | KM12 89.3 µM | MOLT-4 44.5 µM | UACC-257 > 100 µM | CAKI-1 78.9 µM | SK-OV-3 68.9 µM | OVCAR-3 93.1 µM | M14 > 100 µM | MCF7 > 100 µM | HCT-116 99.1 µM | SF-295 65.8 µM

CCCC(=O)OC(OC(=O)CCC)c1ccc([N+](=O)[O-])o1
inactive: SN12C 17.3 µM | SR 18 µM | SK-MEL-2 22.8 µM | 786-0 18.3 µM | MDA-MB-435 20.7 µM | ACHN 20.5 µM | SK-MEL-5 32.4 µM | MDA-MB-231 27.5 µM | KM12 37.6 µM | MOLT-4 31.1 µM | UACC-257 21.4 µM | CAKI-1 17.7 µM | SK-OV-3 > 100 µM | OVCAR-3 20.9 µM | M14 19.8 µM | MCF7 16.9 µM | CCRF-CEM 28.2 µM | HCT-116 16.9 µM | SF-295 > 100 µM

Cl/C(=N\c1cccc2ccccc12)N(c1ccccc1)c1ccccc1
inactive: SN12C > 100 µM | SR 25.4 µM | SK-MEL-2 > 100 µM | 786-0 > 100 µM | MDA-MB-435 > 100 µM | ACHN 66.7 µM | MDA-MB-231 > 100 µM | KM12 75 µM | UACC-257 70 µM | CAKI-1 > 100 µM | SK-OV-3 > 100 µM | OVCAR-3 60.1 µM | M14 43 µM | MCF7 35.2 µM | HCT-116 73.5 µM | SF-295 67.6 µM

O=C(NNC(=O)c1ccncc1)C(=O)Nc1cc(Cl)c(Cl)cc1Cl
inactive: SN12C > 100 µM | SK-MEL-2 > 100 µM | 786-0 > 100 µM | MDA-MB-435 > 100 µM | ACHN > 100 µM | SK-MEL-5 > 100 µM | MDA-MB-231 > 100 µM | KM12 > 100 µM | MOLT-4 > 100 µM | UACC-257 > 100 µM | CAKI-1 > 100 µM | SK-OV-3 > 100 µM | OVCAR-3 > 100 µM | M14 > 100 µM | MCF7 > 100 µM | CCRF-CEM > 10 µM | NCI-H226 > 100 µM | HCT-116 > 100 µM | SF-295 > 100 µM
